# In patent US12629359B2 (UNIVERSITA' DEGLI STUDI DI BRESCIA, priority 2020, dated 2026):
# Tests used:
# SYN120 tg mice [1] = test: Open-field motility after acute i.p. injection in SYN120 tg mice; type: in vivo, mouse; details: acute i.p. 10 mg/kg, 12 month-old SYN120 tg mice
# Text: We investigated the ability of compound I-threo to stimulate the motility of Parkinson's disease mice more efficiently that MPH. […] All experiments were made in accordance with Directive 2010/63/EU of the European Parliament and of the Council of 22 Sep. 2010 on the protection of animals used. All experimental procedures conformed to the National Research Guide for the Care and Use of Laboratory Animals and were approved by the Animal Research Committees of the University of Brescia (Protocol Permit 719/2015-PR). Three different groups of 12 month-old SYN120 tg mice (N=3 animals per group) were used for the motility assay by using the open-field behavioural paradigm. The motility of the animals in the open-field arena was registered and analysed by using the Any-Maze system. […] The total distance travelled by the mice during 2.5 minutes intervals was plotted on graphs.
# SYN120 tg mice [2] = test: Immunohistochemistry of nigrostriatal alpha-synuclein deposition and striatal dopaminergic fibers after chronic treatment of SYN120 tg mice; type: in vivo, mouse; details: daily i.p. 5 mg/kg for 6 weeks
# Text: After the behavioral studies animals were sacrificed by transcardiac perfusion to collect their brains, which were used for immunohistochemical studies aimed at evaluating the efficacy of compound I-threo to reduce pathological alpha-synuclein deposition and neuroprotection in the nigrostriatal system.
# First, we quantified aggregated alpha-synuclein pathological deposition by using an antibody specifically recognizing aggregated alpha-synuclein in the subtantia nigra and striatum of mice.
# Then alpha-synuclein aggregation was evaluated also by using Thioflavin-S a dye recognizing fibrillary aggregates. […] Please note that dopaminergic neurons or fibers in the images were labelled in light blue.
# Finally, we evaluated the neuroprotective effect of the chronic treatment with compound I-threo by quantifying the recovery of striatal dopaminergic fibers in the SYN120 tg mice treated with the compound when compared to the vehicle-treated animals.
smiles,measurement,setting,value
"COC(=O)[C@@H](c1ccc(C)cc1)C1CCCCN1.Cl (stereo partly drawn) [I-threo, threo methyl 2-(piperidin-2-yl)-2-(p-tolyl)acetate hydrochloride]",motility (total distance travelled) in open field arena,SYN120 tg mice [1],improve the motility of SYN120 tg mice more efficiently than MPH
same,Thioflavin-S signal in substantia nigra and striatum,SYN120 tg mice [2],marked reduction of thioflavin-S signal
same,aggregated alpha-synuclein in substantia nigra and striatum,SYN120 tg mice [2]; vs vehicle,statistically significant reduction of aggregated alpha-synuclein
same,striatal TH-positive dopaminergic fibers,SYN120 tg mice [2]; vs vehicle,significant recovery of striatal TH-positive dopaminergic fibers
